Test results published in patent publication US11534457B2, “Use of dextran sulfate” (priority 2017, dated 2022).

Tested on: Human umbilical vein endothelial cells (HUVECs)
Experiment: Gene expression array and pathway analysis, HUVECs
Format: cell-based
Method: For each cell line, n=8×25 cm^2 culture flasks were set up. Two flasks were harvested for each cell type on the day of treatment (24 hours after seeding). This represents the Day0 time point. From the remaining flasks, three flasks were treated with Control Medium and three were treated with Culture Medium (CM) containing LMW-DS to give a final concentration of 0.01 mg/ml. Cells from the treated flasks were collected after 48 hours. Therefore the collected data represent (a) untreated cells (Day0 Controls and Day2 Controls) and (b) cells treated with LMW-DS for 48 hours (Day2 LMW-DS treated).
25 cm^2 flasks were coated by adding 2 ml per flask of a solution of 50 μg/ml poly-d-lysine in Hank's balanced salt solution (HBSS) and incubating overnight at 37° C. in the dark. Flasks were washed with cell culture water and air-dried for 30 min in the dark. Flasks were coated by adding 1 ml per flask of a solution of 25 μg/ml laminin in phosphate-buffered saline (PBS) and incubating for 2 hour at 37° C. in the dark. The laminin flasks were washed with PBS three times before plating cells.
Medium 200+Large Vessel Endothelial Supplement (M200+LVES) additive (1:50) was prepared and pre-warmed to 37° C. Cells were thawed in a 37° C. water bath for no longer than 2 min and gently transferred into a 50 ml tube containing 20 ml Dulbecco's Modified Eagle Medium, Nutrient Mixture F-12 (DMEM-F12). The cell suspension was mixed by inverting the tube carefully twice. Cells were spun at 400×g for 10 minutes. Supernatant removed and cells were resuspended in 10 ml of culture media (M200+LVES additive).
Cells were counted with the Cellometer. 1,000,000 cells/flask were seeded in 25 cm^2 flasks (n=8) and medium was topped up to a total of 5 ml per flask. Cells were incubated at 37° C. with 5% CO2. Cells were allowed to settle for 24 hours before LMW-DS treatment.
LMW-DS was provided at a stock concentration of 20 mg/ml and was kept in a temperature monitored refrigerator at 4° C. A fresh […]LMW-DS stock (1.0 mg/ml) was prepared in sterile DMEM-F12. The concentrated drug stock was sterile filtered and added to the respective culture media (19.6 ml CM and 0.4 ml LMW-DS stock solution). The Control was made using 19.6 ml CM and 0.4 ml of DMEM-F12. LMW-DS and CM were added to the respective flasks (5 ml each) to reach the 0.01 mg/ml concentration of LMW-DS in each dish with a total of 10 ml CM each.
CM was aspirated into a clean and labelled 15 ml Falcon tube. The flasks (without culture medium) were placed into the −80° C. freezer for 30 minutes. The CM in the Falcon tubes were spun at 3000×g for 5 minutes. Supernatant was removed and the small pellet was re-suspended in 2.5 ml Trizol:Water (4:1) solution at room temperature (RT, […]).
Two aliquots of 1 ml lysate was removed from each sample and 200 μl of chloroform was added to each (0.2 ml of chloroform per 1 ml of TRIzol Reagent used during the cell lysis step) and the tube was shaken vigorously. Samples were stored at RT for 2-3 minutes and subsequently centrifuged at 12,000×g for 15 minutes at 4° C.
The expression data were downloaded into separate files for each cell line. The ‘Background corrected’ expression is the data from the “gProcessedSignal” of the arrays that is the result of the background signal extracted from the actual signal of the relevant probe. This is the most often used variable in array analysis. The background corrected signal was log 2 transformed for all samples for statistical analysis. To reduce the false discovery rate in the samples, the signals that were below ‘expression level’ were removed. The ‘below expression’ level was set at 5 for the log 2 transformed expression values.
Based on the expression pattern of the Control probes on each array it was decided to carry out Median Centering for all arrays before analysis to reduce the variability of the results. […]

## low molecular weight dextran sulfate [LMW-DS]
0.01 mg/ml, 48 h
  aggregate effect on adhesion and angiogenesis (1 molecule, ADAM11): adhesion would not be affected but angiogenesis would be activated
  differential regulation of the 197 genes regulating cell attachment: none are differentially regulated
  modulation of the effects of oxidative stress on mitochondria: no significant modulation
  number of genes differentially expressed, D0 control vs D2 LMW-DS treated: 1779 genes
  number of genes differentially expressed, D2 control vs D2 LMW-DS treated: 76 genes
  number of genes: abolished nutrient effect / no effect: 67
  number of genes: abolished nutrient effect / significant downregulation: 4
  number of genes: abolished nutrient effect / significant upregulation: 11
  number of genes: abolished nutrient effect / total: 82
  number of genes: enhanced response to nutrients / significant downregulation: 120
  number of genes: enhanced response to nutrients / significant upregulation: 229
  number of genes: enhanced response to nutrients / total: 349
  number of genes: not different from control / significant downregulation: 167
  number of genes: not different from control / significant upregulation: 1326
  number of genes: not different from control / total: 1493
  number of genes: total / no effect: 67
  number of genes: total / significant downregulation: 291
  number of genes: total / significant upregulation: 1566
  number of genes: total / total: 1924
D2 LMW-DS treatment
  upstream regulator HGF: activation z-score: 3.194
  upstream regulator HGF: predicted activation state relative D2 control: Activated relative to control
  upstream regulator TGFβ1: activation z-score: 1.429
  upstream regulator TGFβ1: predicted activation state relative D2 control: Activated relative to control
  upstream regulator VEGF: activation z-score: 3.432
  upstream regulator VEGF: predicted activation state relative D2 control: Activated relative to control
